Several values for one entry are separate records, joined by “and”; a condition that tells them apart may be missing. Identical values can stand only once.
Key:
[1] = (§1) Functional CPE-based assay to measure dose dependent changes in cell viability from drug treatment in Vero E6 miRFP670 cells. Cells are treated with antiviral candidates that have been serially diluted. Cytotoxicity is reported via analysis of MTS assays in uninfected cells. The assay has been performed by KU Leuven.; format: toxicity, Vero C1008; details: chlorocebus sabaeus
[2] = Functional assay to measure dose dependent changes in cell viability from drug treatment in Vero E6 miRFP670 cells (cotreated with P-gp inhibitor, CP100356) that are infected with Dengue virus type 2 New Guinea C. […] Cytotoxicity is reported via via analysis of DAPI count using high-content imager. The assay has been performed by KU Leuven.; format: toxicity, cell-based, Vero C1008; details: chlorocebus sabaeus, p-gp concentration 500 nM
[3] = as §1, with “miRFP670 cells (cotreated with P-gp inhibitor, CP100356).” for “miRFP670 cells.”; format: toxicity, Vero C1008; details: chlorocebus sabaeus
[4] = as §1, with “Huh-7” for “Vero E6 miRFP670”, “of MTT/” for “of”, “National Institute of Allergy and Infectious Diseases.” for “KU Leuven.”; format: toxicity; details: human
[5] = Functional metabolic assay to measure dose dependent changes in cell viability from drug treatment in Vero E6/TMPRSS2 cells (cotreated with P-gp inhibitor, Elacridar). […] Cytotoxicity is reported via measuring absorbance and analysis of MTT/MTS assays in uninfected cells. The assay has been performed by Icahn School of Medicine at Mount Sinai.; format: toxicity, cell-based, VeroE6/TMPRSS2; details: chlorocebus sabaeus, p-gp concentration 2 uM
[6] = Functional metabolic assay to measure dose dependent changes in cell viability from drug treatment in Vero E6/TMPRSS2 cells. Cells are treated with antiviral candidates that have been serially diluted. Cytotoxicity is reported via measuring absorbance and analysis of MTT/MTS assays in uninfected cells. The assay has been performed by Icahn School of Medicine at Mount Sinai.; format: toxicity, cell-based, VeroE6/TMPRSS2; details: chlorocebus sabaeus; for CC50: Vero E6/TMPRSS2 cells; for CC10: veroe6/tmprss2
[7] = with CP100356 (P-gp inhibitor, concentration not stated)
[8] = Vero E6 miRFP670 cells, with CP100356 (P-gp inhibitor, concentration not stated), p-gp concentration 500 nM
[9] = vero c1008, p-gp concentration 500 nM
[10] = Vero E6/TMPRSS2 cells, with Elacridar (P-gp inhibitor, concentration not stated)

Structure (SMILES)	CC50 ([1]; Vero E6 miRFP670 cells)	CC50 [2, 7]	CC50 [5, 10]	CC10 ([5]; veroe6/tmprss2)	other results
C#C[C@@]1(O)[C@H](O)[C@@H](CO)O[C@H]1n1ccc2c(N)ncnc21	> 50 µM	> 50 µM	–	–	CC50 ([2]; vero c1008): 40.4 µM and 28.2 µM; CC50 [3, 8]: > 50 µM; CC50 [3, 9]: 38 µM
CCCCCC(=O)N[C@H](C(=O)NCc1cccc(CN)c1)c1ccc(OCc2ccccc2)cc1	–	2.32 µM	–	–	CC50 [4]: 18 µM
CCCCCC(=O)N[C@H](C(=O)Nc1ccc2[nH]ncc2c1)c1ccc(OCc2ccccc2)cc1	–	> 10 µM	–	–	CC50 [4]: 32 µM
CCCCCC(=O)N[C@H](C(=O)Nc1ccc(C(N)=O)cc1)c1ccc(OCc2ccccc2)cc1	–	> 10 µM	–	–	CC50 [4]: 32 µM
CC(C)Cc1nc2c(C(=O)Nc3ccc4c(c3)CNC4)cc(Br)cc2[nH]1	0.623 µM	0.864 µM	20.9 µM	0.569 µM	–
O=C(Nc1ccc2c(c1)CNC2)c1cc(Cl)cc(-n2cccc2)c1	> 50 µM	> 50 µM	46.4 µM	17.502 µM and 9.003 µM	CC50 ([5]; veroe6/tmprss2): 34.8 µM
Clc1ccc2[nH]cc(Cc3ccc(-c4nn[nH]n4)cc3)c2c1	> 50 µM	19.3 µM	> 50 µM	> 50 µM	–
CC(C)NC(=O)[C@H](Nc1ccc2c(c1)CNC2)c1cc(Cl)cc2[nH]ncc12	> 50 µM	–	> 50 µM	> 50 µM	CC50 ([2]; vero c1008): > 50 µM and 7.69 µM and 29 µM; CC50 [3, 8]: > 50 µM; CC50 [3, 9]: 47.7 µM
C=C1C[C@H](c2cc(Cl)cc(NC(=O)OCc3ccccc3)c2)[C@@H](c2cccc(-c3nn[nH]n3)c2)C1	5.72 µM	7.56 µM	–	–	–
O=C(Nc1ccc2c(c1)CNC2)c1cc(Cl)cc(C2CC2)c1	10.5 µM	11.2 µM	> 50 µM	0.136 µM	–
O=C1Cc2c(cccc2C(=O)Nc2ccc3c(c2)CNC3)N1	> 50 µM	> 50 µM	–	–	CC50 [3, 8]: > 50 µM
O=C(Nc1ccc2c(c1)CNC2)c1cc(Br)cc2[nH]c(-c3ccccc3)nc12	10.7 µM	3.3 µM	14.3 µM	0.098 µM	–
O=C(Nc1ccc2c(c1)CNCCC2)c1cc(Cl)cc2[nH]ncc12	1.42 µM	2.18 µM	> 50 µM	< 0.023 µM	–
O=C(Nc1cc(Cl)cc(C(=O)NCc2ccc(-c3nnn[nH]3)cc2)c1)OCc1ccccc1	> 50 µM	3.21 µM	> 50 µM	> 50 µM	–
CC(C)(C)NC(=O)[C@H](Nc1cccc(-c2nn[nH]n2)c1)c1cc(Cl)cc(NC(=O)OCc2ccccc2)c1	> 50 µM	2.78 µM	> 50 µM	> 50 µM	–
O=C(Nc1cc(Cl)cc([C@H]2CN(Cc3ccccc3)C[C@@H]2c2cccc(-c3nn[nH]n3)c2)c1)OCc1ccccc1	12.5 µM	12.3 µM	> 50 µM	34.224 µM	–
O=C(Nc1ccc2c(c1)CNC2)c1cccc2[nH]ncc12	11.5 µM	15.4 µM	> 50 µM	> 50 µM	–
O=C(Nc1cc(Cl)cc(C(=O)Nc2ccc3c(c2)CNC3)c1)OCc1ccccc1	9.29 µM	12.1 µM	–	–	CC50 ([5]; veroe6/tmprss2): > 10 µM and 25.1 µM; CC50 [6]: 16.6 µM; CC10 [6]: 19.011 µM
O=C(Nc1ccc2c(c1)CNC2)c1cc(Br)cc2[nH]c(Cc3ccccc3)nc12	11.6 µM	9.98 µM	16.5 µM	0.199 µM	–
CCc1nc2c(C(=O)Nc3ccc4c(c3)CNC4)cc(Br)cc2[nH]1	> 50 µM	> 50 µM	33.5 µM	0.32 µM	–
CC(C)c1nc2c(C(=O)Nc3ccc4c(c3)CNC4)cc(Br)cc2[nH]1	2.65 µM	3.63 µM	19.2 µM	0.476 µM	–
NCCCc1cccc(NC(=O)c2cc(Cl)cc(NC(=O)OCc3ccccc3)c2)n1	4.43 µM	–	14.9 µM	0.527 µM	CC50 [6]: 6.18 µM; CC10 [6]: 6.788 µM
NCc1cccc(NC(=O)c2cc(Cl)cc(-n3cccc3)c2)c1	25.7 µM	> 50 µM	> 50 µM	> 50 µM	–
O=C(Nc1cc(Cl)cc(C(=O)Nc2cccc(C3CCNCC3)c2)c1)OCc1ccccc1	5.29 µM	11.8 µM	> 10 µM	–	CC50 ([5]; veroe6/tmprss2): 13.5 µM
N#C[C@H](Nc1ccc2c(c1)CNC2)c1cc(Cl)cc2[nH]ncc12	> 50 µM	–	> 50 µM	> 50 µM	–

Structure (SMILES)	CC50 ([1]; Vero E6 miRFP670 cells)	CC50 [2, 7]	CC50 [5, 10]	CC10 ([5]; veroe6/tmprss2)	other results
NCc1cccc(NC(=O)[C@@H](NC(=O)OCc2ccccc2)c2ccc(OCc3ccccc3)cc2)c1	–	5.95 µM	–	–	CC50 [4]: 18 µM
O=C(O)COc1cccc(NC(=O)c2cc(Cl)cc(NC(=O)OCc3ccccc3)c2)c1	> 50 µM	–	> 50 µM	> 50 µM	–
CCOc1cccc(-c2ccc(S(=O)(=O)Nc3ccc(Cl)cc3C(=O)O)cc2C)c1	36.1 µM	21.9 µM	> 50 µM	0.027 µM	–
NCCc1ccc([C@H]2C[C@@H]2c2cc(Cl)cc(NC(=O)OCc3ccccc3)c2)cc1	2.43 µM	5.29 µM	–	–	CC50 ([2]; vero c1008): 4.57 µM; CC50 [3, 8]: 5.78 µM
O=C(Nc1cc(Cl)cc(C(=O)Nc2ccc(C3CCNCC3)cc2)c1)OCc1ccccc1	2.82 µM	3.1 µM	–	–	CC50 [3, 8]: 1.43 µM
COc1cc(Cc2c(-c3ccc(F)cc3)noc2C)nc(N2CCNCC2)n1	–	> 10 µM	–	–	CC50 [4]: 18 µM
Cc1cc(CN)cc(NC(=O)c2cc(Cl)cc(NC(=O)OCc3ccccc3)c2)c1	–	–	> 10 µM	–	CC50 ([5]; veroe6/tmprss2): 16.6 µM; CC50 [6]: 7.97 µM; CC10 [6]: 8.014 µM
CC(C)OC(=O)Nc1cc(Cl)cc(C(=O)Nc2cccc(CN)c2)c1	20.5 µM	4.99 µM	> 50 µM	< 0.023 µM	–
O=C(Nc1cc(Cl)cc(-c2ccc3cc(C(=O)O)[nH]c3c2)c1)OCc1ccccc1	< 0.391 µM	24.8 µM	–	–	CC50 [3, 8]: 38.1 µM
COC(=O)c1cc(NC(=O)c2cc(Cl)cc(NC(=O)OCc3ccccc3)c2)cc(-c2nnn[nH]2)c1	35.2 µM	–	> 50 µM	> 50 µM	–
O=C(Nc1cc(Cl)cc(C(=O)Nc2cccc(-c3nnn[nH]3)c2)c1)OCc1ccccc1	–	–	> 50 µM	0.117 µM	CC50 [6]: > 50 µM; CC10 [6]: > 50 µM
C[C@@]1(c2cccc(CN)c2)C[C@H]1c1cc(Cl)cc(NC(=O)OCc2ccccc2)c1	2.61 µM	6.46 µM	–	–	–
CCc1cc(C(=O)Nc2cccc(CN)c2)sc1-c1ccc(Cl)cc1	4.86 µM	–	9.12 µM	0.452 µM	CC50 [6]: 13.9 µM; CC10 [6]: 15.317 µM
CC[C@@H](Cc1nnn[nH]1)c1ccc(NC(=O)c2cc(Cl)cc(NC(=O)OCc3ccccc3)c2)cc1	> 50 µM	> 50 µM	> 50 µM	> 50 µM	CC50 [6]: > 50 µM; CC10 [6]: > 50 µM
Cc1cc(-c2ccc([C@@H](NC(=O)OCc3ccccc3)C(=O)Nc3cccc(CN)c3)cc2)cs1	–	–	21.2 µM	0.089 µM	CC50 [6]: 6.25 µM; CC10 [6]: 7.281 µM
NCc1cccc(C(=O)Nc2cc(Cl)cc(NC(=O)OCc3ccccc3)c2)c1	–	–	> 10 µM	–	CC50 ([5]; veroe6/tmprss2): 19.3 µM; CC50 [6]: 6.67 µM; CC10 [6]: 8.366 µM
NCCc1cccc(NC(=O)[C@H]2[C@H]3CCCCC[C@H]3[C@H]2NC(=O)OCc2ccccc2)c1	7.48 µM	7.53 µM	4.88 µM	0.282 µM	CC50 [6]: 1.78 µM; CC10 [6]: 2.002 µM
NCc1cccc(CCc2cc(Cl)cc(NC(=O)OCc3ccccc3)c2)c1	5.46 µM	11.9 µM	29.7 µM	2.058 µM	–
O=C(O)c1cc2cc(-c3cc(Cl)cc(C4CC4)c3)ccc2[nH]1	40.7 µM	26.5 µM	–	–	CC50 [3, 8]: 35.5 µM
Cc1ccc(NC(=O)c2cc(Cl)cc(NC(=O)OCc3ccccc3)c2)cc1CN	5.18 µM	4.33 µM	15 µM	–	CC50 ([5]; veroe6/tmprss2): 15.2 µM; CC50 [6]: 6.64 µM; CC10 [6]: 8.104 µM; CC50 [3, 8]: 5.8 µM
Cc1[nH]c2ccccc2c1CN1CCC(c2c[nH]c3ncccc23)CC1	25.2 µM	31 µM	> 10 µM	–	CC50 [6]: > 50 µM; CC10 [6]: > 50 µM
CCc1cc(Br)cc2c(Cc3ccc(-c4nnn[nH]4)cc3)c[nH]c12	19.4 µM	23.1 µM	–	–	CC50 ([1]; vero c1008): 17.9 µM; CC50 ([2]; vero c1008): 18.6 µM; CC50 [3, 8]: 21.7 µM
O=C(O)c1cc(Cl)ccc1NS(=O)(=O)c1ccc(Oc2ccccc2Cl)cc1	–	–	–	–	CC50 [6]: > 50 µM; CC10 [6]: > 50 µM
O=C(Nc1cc(Cl)cc(C(=O)Nc2cccc(-n3nn[nH]c3=O)c2)c1)OCc1ccccc1	> 50 µM	> 50 µM	–	–	CC50 [6]: > 50 µM; CC10 [6]: > 50 µM
C[C@@]1(O)[C@H](O)[C@@H](CO)O[C@H]1n1ccc2c(N)ncnc21 [BETA-2'-C-METHYL-7-DEAZA-ADENOSINE]	> 50 µM	–	> 10 µM	–	CC50 [6]: > 10 µM; CC10 [6]: > 10 µM; CC50 ([2]; vero c1008): 24.6 µM and > 200 µM; CC50 ([3]; vero c1008, p-gp concentration 100 nM): > 50 µM; CC50 [3, 9]: > 200 µM
